For 18 molecules, T/C results are on record in PubChem BioAssay AID248 (DTP/NCI, 2004).

“And” between values parts separate entries of the source, which are not always exact repeats. Identical values can stand only once. Toxic doses and inconclusive results are not listed.

This assay concerns L1210 leukemia ip in BDF1 mice, survival T/C. The assay is described as follows: NCI In Vivo Anticancer Drug Screen. Data for tumor model L1210 Leukemia (intraperitoneal) in B6D2F1 (BDF1) mice. As to conditions: endpoint: mean survival time, higher = longer survival. Summed up: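 Each compound was tested against a transplantable tumor grown in mice. The endpoint was survival, with treated animals benchmarked against vehicle controls as a simple ratio.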

Where [1] appears, read: dose: 100.0 mg/kg/injection, schedule: Q01DX001 (ip), vehicle: saline.
The mark [2] stands for this setting: dose: 200.0 mg/kg/injection, schedule: Q01DX001 (ip), vehicle: saline.
Where [3] appears, read: dose: 400.0 mg/kg/injection, schedule: Q01DX001 (ip), vehicle: saline.
Setting [4] is: dose: 100.0 mg/kg/injection, schedule: Q04DX003 (ip), vehicle: saline.
Setting [5] is: dose: 200.0 mg/kg/injection, schedule: Q04DX003 (ip), vehicle: saline.
[6] abbreviates: dose: 400.0 mg/kg/injection, schedule: Q04DX003 (ip), vehicle: saline.
The mark [7] stands for this setting: dose: 100.0 mg/kg/injection, schedule: Q01DX009 (ip), vehicle: saline.
Setting [8] is: dose: 200.0 mg/kg/injection, schedule: Q01DX009 (ip), vehicle: saline.
Setting [9] is: dose: 100.0 mg/kg/injection, schedule: Q01DX009 (ip), vehicle: saline with Tween-80.
The mark [10] stands for this setting: dose: 200.0 mg/kg/injection, schedule: Q01DX009 (ip), vehicle: saline with Tween-80.
Setting [11] is: dose: 100.0 mg/kg/injection, schedule: Q01DX001 (ip), vehicle: carboxymethylcellulose (CMC).
Where [12] appears, read: dose: 200.0 mg/kg/injection, schedule: Q01DX001 (ip), vehicle: carboxymethylcellulose (CMC).
Setting [13] is: dose: 400.0 mg/kg/injection, schedule: Q01DX001 (ip), vehicle: carboxymethylcellulose (CMC).

Regarding `FC(F)OC(F)(F)C(F)Cl` (stereo not drawn), the T/C runs as follows: under setting [1], 89 % of control; under setting [2], 89 % of control; under setting [3], 97 % of control.

As to `O=C(NC(=S)Nc1ccccc1)c1cccc(Cl)c1`, the T/C was 95 % of control (dose: 75.0 mg/kg/injection, schedule: Q01DX001 (ip), vehicle: carboxymethylcellulose (CMC)) and 96 % of control (dose: 150.0 mg/kg/injection, schedule: Q01DX001 (ip), vehicle: carboxymethylcellulose (CMC)).

With `O=CNCC(=O)O`, the T/C reads like this: (dose: 100.0 mg/kg/injection, schedule: Q04DX002 (ip), vehicle: saline) 92 % of control; under setting [4], 97 % of control; (dose: 200.0 mg/kg/injection, schedule: Q04DX002 (ip), vehicle: saline) 95 % of control; under setting [5], 94 % of control; (dose: 400.0 mg/kg/injection, schedule: Q04DX002 (ip), vehicle: saline) 92 % of control; under setting [6], 106 % of control.

`O=C(O)CN1C(=O)CNC12CCCCC2`: the T/C under setting [1] was 95 % of control, the T/C under setting [2] is 101 % of control and the T/C under setting [3] was 97 % of control.

With `Nc1nc(-c2ccccc2N=NN2CCOCC2)nc2ccccc12`, the T/C was 101 % of control (dose: 100.0 mg/kg/injection, schedule: Q04DX003 (ip), vehicle: Klucel (hydroxypropylcellulose) (HPC)); 103 % of control (dose: 200.0 mg/kg/injection, schedule: Q04DX003 (ip), vehicle: Klucel (hydroxypropylcellulose) (HPC)); 101 % of control (dose: 400.0 mg/kg/injection, schedule: Q04DX003 (ip), vehicle: Klucel (hydroxypropylcellulose) (HPC)).

Take `CS(=O)(=O)OC12CC3CC(CC(C3)C1)C2`: the T/C was 96 % of control (dose: 50.0 mg/kg/injection, schedule: Q01DX009 (ip), vehicle: saline); 90 % of control under setting [1]; 96 % of control under setting [7]; 98 % of control under setting [2]; 94 % of control under setting [8].

Regarding `Nc1ccc(C(=O)CC(O)(C(F)(F)F)C(F)(F)F)cc1`, the T/C (dose: 25.0 mg/kg/injection, schedule: Q01DX009 (ip), vehicle: saline with Tween-80) was 92 % of control; the T/C (dose: 50.0 mg/kg/injection, schedule: Q01DX009 (ip), vehicle: saline with Tween-80) is 94 % of control; the T/C under setting [9] was 100 % of control and 92 % of control; the T/C under setting [10] was 95 % of control.

Take `OCCCOc1ccccc1`: the T/C is, setting by setting: (dose: 100.0 mg/kg/injection, schedule: Q01DX001 (ip), vehicle: saline with Tween-80) 103 % of control; (dose: 200.0 mg/kg/injection, schedule: Q01DX001 (ip), vehicle: saline with Tween-80) 97 % of control; (dose: 400.0 mg/kg/injection, schedule: Q01DX001 (ip), vehicle: saline with Tween-80) 100 % of control.

For `CC(=O)c1cc(O)c2ccccc2c1O`, the T/C is 98 % of control (dose: 100.0 mg/kg/injection, schedule: Q01DX001 (ip), vehicle: water) and 89 % of control (dose: 200.0 mg/kg/injection, schedule: Q01DX001 (ip), vehicle: water).

On to `C[N+]1(C)Cc2ccccc2-c2ccccc2C1`, for which the T/C is 121 % of control (dose: 12.0 mg/kg/injection, schedule: Q04DX003 (ip), vehicle: saline); 103 % of control (dose: 12.5 mg/kg/injection, schedule: Q01DX009 (ip), vehicle: saline); 111 % of control (dose: 25.0 mg/kg/injection, schedule: Q01DX009 (ip), vehicle: saline); 94 % of control (dose: 25.0 mg/kg/injection, schedule: Q04DX003 (ip), vehicle: saline); 106 % of control (dose: 50.0 mg/kg/injection, schedule: Q04DX003 (ip), vehicle: saline).

In the case of `CC(=O)OC1CCC(CC2CCCCC2)CC1` (stereo not drawn), the T/C reads like this: (dose: 50.0 mg/kg/injection, schedule: Q01DX009 (ip), vehicle: Klucel (hydroxypropylcellulose) (HPC)) 94 % of control; (dose: 100.0 mg/kg/injection, schedule: Q01DX009 (ip), vehicle: Klucel (hydroxypropylcellulose) (HPC)) 100 % of control; (dose: 200.0 mg/kg/injection, schedule: Q01DX009 (ip), vehicle: Klucel (hydroxypropylcellulose) (HPC)) 100 % of control; (dose: 400.0 mg/kg/injection, schedule: Q01DX009 (ip), vehicle: Klucel (hydroxypropylcellulose) (HPC)) 93 % of control.

`O=C(O)C1=NN(c2ccc([N+](=O)[O-])cc2)C(=O)C1`: the T/C is, setting by setting: (dose: 100.0 mg/kg/injection, schedule: Q04DX003 (ip), vehicle: other) 106 % of control; (dose: 200.0 mg/kg/injection, schedule: Q04DX003 (ip), vehicle: other) 105 % of control; (dose: 400.0 mg/kg/injection, schedule: Q04DX003 (ip), vehicle: other) 106 % of control.

Consider `CCCCCCCCCCCCCCCCS(=O)(=O)c1ccc(S(=O)(=O)F)cc1NC(=O)C(F)(F)F`, for which the T/C runs as follows: under setting [9], 87 % of control; (dose: 100.0 mg/kg/injection, schedule: Q04DX003 (ip), vehicle: saline with Tween-80) 92 % of control; under setting [10], 97 % of control; (dose: 200.0 mg/kg/injection, schedule: Q04DX003 (ip), vehicle: saline with Tween-80) 93 % of control; (dose: 400.0 mg/kg/injection, schedule: Q01DX009 (ip), vehicle: saline with Tween-80) 105 % of control.

Take `COc1ccc(Cl)cc1NC(=O)Nc1cccc2c(O)cccc12`: the T/C runs as follows: under setting [7], 96 % of control; under setting [4], 107 % of control; under setting [8], 100 % of control; under setting [5], 107 % of control; (dose: 400.0 mg/kg/injection, schedule: Q01DX009 (ip), vehicle: saline) 96 % of control; under setting [6], 103 % of control.

As for `Nc1nc(N)c2cc(CNc3ccc(C(=O)NC(CC(=O)O)C(=O)O)c(Cl)c3)ccc2n1` (stereo not drawn), the T/C runs as follows: (dose: 1.8 mg/kg/injection, schedule: Q01DX009 (ip), vehicle: saline with Tween-80) 152 % of control; (dose: 1.8 mg/kg/injection, schedule: Q01DX009 (ip), vehicle: saline) 157 % of control; (dose: 2.7 mg/kg/injection, schedule: Q01DX009 (ip), vehicle: saline with Tween-80) 178 % of control; (dose: 2.7 mg/kg/injection, schedule: Q01DX009 (ip), vehicle: saline) 162 % of control and 180 % of control; (dose: 9.0 mg/kg/injection, schedule: Q01DX009 (ip), vehicle: saline) 92 % of control; (dose: 30.0 micrograms/kg/injection, schedule: Q01DX009 (ip), vehicle: saline with Tween-80) 95 % of control. Moreover, the T/C is 107 % of control (dose: 44.0 micrograms/kg/injection, schedule: Q01DX009 (ip), vehicle: saline with Tween-80); 95 % of control (dose: 67.0 micrograms/kg/injection, schedule: Q01DX009 (ip), vehicle: saline with Tween-80); 95 % of control (dose: 100.0 micrograms/kg/injection, schedule: Q01DX009 (ip), vehicle: saline with Tween-80).

In the case of `CC1C(Cl)(Cl)C1(C)/C=C/C1C(C)(C)C1(Cl)Cl` (stereo not drawn), the T/C is 260 % of control (dose: 100.0 mg/kg/injection, schedule: Q01DX001 (ip), vehicle: other); 106 % of control under setting [1]; 101 % of control (dose: 178.0 mg/kg/injection, schedule: Q01DX001 (ip), vehicle: saline); 117 % of control (dose: 200.0 mg/kg/injection, schedule: Q01DX001 (ip), vehicle: other); 108 % of control under setting [2]; 97 % of control (dose: 267.0 mg/kg/injection, schedule: Q01DX001 (ip), vehicle: saline). The T/C (dose: 400.0 mg/kg/injection, schedule: Q01DX001 (ip), vehicle: other) was 202 % of control; the T/C under setting [3] is 95 % of control and 97 % of control; the T/C (dose: 600.0 mg/kg/injection, schedule: Q01DX001 (ip), vehicle: saline) was 88 % of control.

Turning to `CCOC(=O)C1CSC(C)(C(=O)OCC)N1` (stereo not drawn), the T/C was 100 % of control under setting [11], 96 % of control under setting [12] and 105 % of control under setting [13].

Regarding `O=S(c1ccccc1)c1ccc2cccccc1-2` (stereo not drawn), the T/C reads like this: under setting [11], 91 % of control; under setting [12], 94 % of control; under setting [13], 100 % of control.
